Experimental data taken from patent publication US20240400515A1, “NPM1-DEPENDING LEUKEMIA AGENTS” (UNIVERSIDAD COMPLUTENSE DE MADRID, priority 2021, published 2024).

Key:
[1] = tested on: OCI-AML3 (NPM1 C+); test: Viability assay (WST-1) in OCI-AML3 cell line; format: cell-based; settings: Homo sapiens, OCI-AML-3, viability percentage relative to vehicle, 24 h
Protocol: (§1) Two different acute myeloid leukemia cell lines, OCI-AML3 (NPM1 C+) and MOLM13 (NPM1 C−) were obtained from the DSMZ cell repository (Braunschweig, Germany). Cell lines were expanded and cryogenically frozen upon acquisition to establish stocks in liquid nitrogen until use. Cultured cells were maintained at 37° C. in a humidified incubator in an atmosphere of 5% CO2 and passaged every 2-3 days. RPMI media (Gibco/Life Technologies; Grand Island, NY) supplemented with 10% fetal bovine serum (FBS) (Hyclone) and 1% penicillin/streptomycin was used.
(§2) The sensitivity of the compounds on OCI-AML3 (NPM1 C+) and MOLM13 (NPM1 C−) cell viability was assessed as an in-vitro acute myeloid leukemia (AML) model. Briefly, cells were seeded at a density of 2×10^4 cells/100 μL/well in 96-well plates. Cell lines were treated for 24 h with the test compound diluted in DMSO at the concentration of 5 μM or vehicle (DMSO). Then, 10 μL of WST-1 solution ((2-(4-iodophenyl)-3-(4-nitrophenyl)-5-(2,4-disulfophenyl)-2H-tetrazolium monosodium salt, Merck) were added and the cells were incubated for 4 h at 37° C. The absorbance was measured at 450 nm using an Asys UVM 340 microplate reader (Biochrom Ltd., Cambridge, UK). The background absorbance of blank wells containing only medium was subtracted from each test well. The data were reported as viability percentage relative to vehicle, obtained from two or three independent experiments performed in triplicate (Table 1).

[2] = tested on: MOLM13 (NPM1 C−); test: Viability assay (WST-1) in MOLM13 cell line; format: cell-based; settings: Homo sapiens, MOLM-13, viability percentage relative to vehicle, 24 h
Protocol: as §1, §2

Cc1ccc([C@H]2Cc3[nH]c4ccccc4c3[C@@H](CCNC(C)C)[C@@H]2N)cc1 [Iy, (2R,3R,4R)-2-(4-Methylphenyl)-4-{2-[(propan-2-yl)amino]ethyl}-2,3,4,9-tetrahydro-1H-carbazol-3-amine]
viability at 5 µM [1]: 8%
viability at 5 µM [2]: 4 ± 4%

CN[C@@H]1[C@@H](c2ccc(C)cc2)Cc2[nH]c3ccc(Cl)cc3c2[C@H]1CCNCC1CC(F)(F)C1 [Iac, (2R,3R,4R)-6-Chloro-4-(2-{[(3,3-difluorocyclobutyl)methyl]amino}ethyl)-N-methyl-2-(4-methylphenyl)-2,3,4,9-tetrahydro-1H-carbazol-3-amine]
viability at 5 µM [1]: 6%
viability at 5 µM [2]: 5 ± 1%

N[C@@H]1[C@@H](c2ccc(OC(F)(F)F)cc2)Cc2[nH]c3ccccc3c2[C@H]1CCNCC1CC1 [If, (2R,3R,4R)-4-{2-[(Cyclopropylmethyl)amino]ethyl}-2-[4-(trifluoromethoxy)phenyl]-2,3,4,9-tetrahydro-1H-carbazol-3-amine]
viability at 5 µM [1]: 11 ± 4%
viability at 5 µM [2]: 12 ± 3%

Cc1ccc([C@H]2Cc3[nH]c4ccc(C)cc4c3[C@@H](CCNCC3CC3)[C@@H]2N)cc1 [Iai, (2R,3R,4R)-4-{2-[(Cyclopropylmethyl)amino]ethyl}-6-methyl-2-(4-methylphenyl)-2,3,4,9-tetrahydro-1H-carbazol-3-amine]
viability at 5 µM [1]: 12 ± 2%
viability at 5 µM [2]: 6 ± 2%

N[C@@H]1[C@@H](c2ccc(C(F)(F)F)cc2)Cc2[nH]c3ccccc3c2[C@H]1CCNCC1CC1 [Ie, (2R,3R,4R)-4-{2-[(Cyclopropylmethyl)amino]ethyl}-2-[4-(trifluoromethyl)phenyl]-2,3,4,9-tetrahydro-1H-carbazol-3-amine]
viability at 5 µM [1]: 14 ± 5%
viability at 5 µM [2]: 13 ± 3%

N[C@@H]1[C@@H](c2ccc(Cl)cc2)Cc2[nH]c3ccccc3c2[C@H]1CCNCC1CC1 [Ii, (2R,3R,4R)-2-(4-Chlorophenyl)-4-{2-[(cyclopropylmethyl)amino]ethyl}-2,3,4,9-tetrahydro-1H-carbazol-3-amine]
viability at 5 µM [1]: 13 ± 4%
viability at 5 µM [2]: 13 ± 1%

N[C@@H]1[C@@H](c2ccccc2Cl)Cc2[nH]c3ccccc3c2[C@H]1CCNCC1CC1 [In, (2R,3S,4R)-2-(2-Chlorophenyl)-4-{2-[(cyclopropylmethyl)amino]ethyl}-2,3,4,9-tetrahydro-1H-carbazol-3-amine]
viability at 5 µM [1]: 29 ± 1%
viability at 5 µM [2]: 28 ± 4%

N[C@H]1[C@H](c2ccc(F)cc2)Cc2[nH]c3ccccc3c2[C@@H]1CCNCC1CC1 [Ip, (2S,3S,4S)-4-{2-[(Cyclopropylmethyl)amino]ethyl}-2-(4-fluorophenyl)-2,3,4,9-tetrahydro-1H-carbazol-3-amine]
viability at 5 µM [1]: 7 ± 3%
viability at 5 µM [2]: 7 ± 2%

COc1ccc([C@H]2Cc3[nH]c4ccc(Cl)cc4c3[C@@H](CCNCC3CC3)[C@@H]2N)cc1 [Iah, (2R,3R,4R)-6-Chloro-4-{2-[(cyclopropylmethyl)amino]ethyl}-2-(4-methoxyphenyl)-2,3,4,9-tetrahydro-1H-carbazol-3-amine]
viability at 5 µM [1]: 26 ± 12%
viability at 5 µM [2]: 16 ± 2%

N[C@@H]1[C@@H](c2cccc(F)c2)Cc2[nH]c3ccccc3c2[C@H]1CCNCC1CC1 [Iq, (2R,3R,4R)-4-{2-[(Cyclopropylmethyl)amino]ethyl}-2-(3-fluorophenyl)-2,3,4,9-tetrahydro-1H-carbazol-3-amine]
viability at 5 µM [1]: 18 ± 6%
viability at 5 µM [2]: 34 ± 4%

N[C@@H]1[C@@H](c2cccc(Cl)c2)Cc2[nH]c3ccccc3c2[C@H]1CCNCC1CC1 [Ih, (2R,3R,4R)-2-(3-Chlorophenyl)-4-{2-[(cyclopropylmethyl)amino]ethyl}-2,3,4,9-tetrahydro-1H-carbazol-3-amine]
viability at 5 µM [1]: 25 ± 7%
viability at 5 µM [2]: 28 ± 10%

Cc1ccc([C@H]2Cc3[nH]c4ccccc4c3[C@@H](CCNCC3CC3)[C@@H]2N)cc1 [Ib, (2R,3R,4R)-4-{2-[(Cyclopropylmethyl)amino]ethyl}-2-(4-methylphenyl)-2,3,4,9-tetrahydro-1H-carbazol-3-amine]
viability at 5 µM [1]: 16%
viability at 5 µM [2]: 20 ± 5%

COc1ccc([C@@H]2Cc3[nH]c4ccccc4c3[C@H](CCNCC3CC3)[C@H]2N)cc1 [Id, (2S,3S,4S)-4-{2-[(Cyclopropylmethyl)amino]ethyl}-2-(4-methoxyphenyl)-2,3,4,9-tetrahydro-1H-carbazol-3-amine]
viability at 5 µM [1]: 33 ± 5%
viability at 5 µM [2]: 40%

COc1ccc2[nH]c3c(c2c1)[C@@H](CCNCC1CC1)[C@H](N)[C@@H](c1ccc(C)cc1)C3 [Iaf, (2R,3R,4R)-4-{2-[(Cyclopropylmethyl)amino]ethyl}-6-methoxy-2-(4-methylphenyl)-2,3,4,9-tetrahydro-1H-carbazol-3-amine]
viability at 5 µM [1]: 39 ± 6%
viability at 5 µM [2]: 60 ± 2%

CNCC[C@@H]1c2c([nH]c3ccccc23)C[C@H](c2ccc(OC)cc2)[C@H]1N [Iw, (2R,3R,4R)-2-(4-Methoxyphenyl)-4-[2-(methylamino)ethyl]-2,3,4,9-tetrahydro-1H-carbazol-3-amine]
viability at 5 µM [1]: 27 ± 2%
viability at 5 µM [2]: 40 ± 15%

CCNCC[C@@H]1c2c([nH]c3ccccc23)C[C@H](c2ccc(C)cc2)[C@H]1N [Iz, (2R,3R,4R)-4-[2-(Ethylamino)ethyl]-2-(4-methylphenyl)-2,3,4,9-tetrahydro-1H-carbazol-3-amine]
viability at 5 µM [1]: 8 ± 4%
viability at 5 µM [2]: 8 ± 3%

COc1ccccc1[C@H]1Cc2[nH]c3ccccc3c2[C@@H](CCNCC2CC2)[C@@H]1N [Ik, (2R,3S,4R)-4-{2-[(Cyclopropylmethyl)amino]ethyl}-2-(2-methoxyphenyl)-2,3,4,9-tetrahydro-1H-carbazol-3-amine]
viability at 5 µM [1]: 23 ± 3%
viability at 5 µM [2]: 30 ± 2%

Cc1ccc([C@H]2Cc3c(c4ccccc4n3C)[C@@H](CCNCC3CC3)[C@@H]2N)cc1 [Ial, (2R,3R,4R)-4-{2-[(Cyclopropylmethyl)amino]ethyl}-9-methyl-2-(4-methylphenyl)-2,3,4,9-tetrahydro-1H-carbazol-3-amine]
viability at 5 µM [1]: 22 ± 2%
viability at 5 µM [2]: 17%

CN[C@@H]1[C@@H](c2ccc(C)cc2)Cc2[nH]c3ccc(Cl)cc3c2[C@H]1CCNCC1CC1 [Iak, (2R,3R,4R)-6-Chloro-4-{2-[(cyclopropylmethyl)amino]ethyl}-N-methyl-2-(4-methylphenyl)-2,3,4,9-tetrahydro-1H-carbazol-3-amine]
viability at 5 µM [1]: 1 ± 1%
viability at 5 µM [2]: 7 ± 2%

Cc1ccc([C@H]2Cc3[nH]c4ccc(Cl)cc4c3[C@@H](CCNCC3CC3)[C@@H]2N)cc1 [Iag, (2R,3R,4R)-6-Chloro-4-{2-[(cyclopropylmethyl)amino]ethyl}-2-(4-methylphenyl)-2,3,4,9-tetrahydro-1H-carbazol-3-amine]
viability at 5 µM [1]: 9 ± 5%
viability at 5 µM [2]: 10 ± 6%

Cc1ccc([C@H]2Cc3[nH]c4ccc(F)cc4c3[C@@H](CCNCC3CC3)[C@@H]2N)cc1 [Iaj, (2R,3R,4R)-4-{2-[(Cyclopropylmethyl)amino]ethyl}-6-fluoro-2-(4-methylphenyl)-2,3,4,9-tetrahydro-1H-carbazol-3-amine]
viability at 5 µM [1]: 7 ± 1%
viability at 5 µM [2]: 4 ± 1%

Cc1ccccc1[C@H]1Cc2[nH]c3ccccc3c2[C@@H](CCNCC2CC2)[C@@H]1N [Im, (2R,3R,4R)-4-{2-[(Cyclopropylmethyl)amino]ethyl}-2-(2-methylphenyl)-2,3,4,9-tetrahydro-1H-carbazol-3-amine]
viability at 5 µM [1]: 36 ± 8%
viability at 5 µM [2]: 61 ± 7%

Cc1ccc([C@H]2Cc3[nH]c4ccccc4c3[C@@H](CCNC3CC3)[C@@H]2N)cc1 [Iaa, (2R,3R,4R)-4-[2-(Cyclopropylamino)ethyl]-2-(4-methylphenyl)-2,3,4,9-tetrahydro-1H-carbazol-3-amine]
viability at 5 µM [1]: 1 ± 1%
viability at 5 µM [2]: 2 ± 2%

Cc1ccc([C@H]2Cc3[nH]c4ccccc4c3[C@@H](CCNCC(C)C)[C@@H]2N)cc1 [Ix, (2R,3R,4R)-2-(4-Methylphenyl)-4-{2-[(2-methylpropyl)amino]ethyl}-2,3,4,9-tetrahydro-1H-carbazol-3-amine]
viability at 5 µM [1]: 0%
viability at 5 µM [2]: 0%

Cc1ccc([C@H]2Cc3[nH]c4ccc(Cl)cc4c3[C@@H](CCNCC3CC(F)(F)C3)[C@@H]2N)cc1 [Iab, (2R,3R,4R)-6-Chloro-4-(2-{[(3,3-difluorocyclobutyl)methyl]amino}ethyl)-2-(4-methylphenyl)-2,3,4,9-tetrahydro-1H-carbazol-3-amine]
viability at 5 µM [1]: 17 ± 4%
viability at 5 µM [2]: 14 ± 8%

CN[C@H]1[C@H](c2ccc(OC)cc2)Cc2[nH]c3ccccc3c2[C@@H]1CCNCC1CC1 [Is, (2S,3S,4S)-4-{2-[(Cyclopropylmethyl)amino]ethyl}-2-(4-methoxyphenyl)-N-methyl-2,3,4,9-tetrahydro-1H-carbazol-3-amine]
viability at 5 µM [1]: 1%
viability at 5 µM [2]: 6 ± 1%

N[C@@H]1[C@@H](c2ccc(F)cc2)Cc2[nH]c3ccccc3c2[C@H]1CCNCC1CC1 [Io, (2R,3R,4R)-4-{2-[(Cyclopropylmethyl)amino]ethyl}-2-(4-fluorophenyl)-2,3,4,9-tetrahydro-1H-carbazol-3-amine]
viability at 5 µM [1]: 16 ± 1%
viability at 5 µM [2]: 13 ± 5%
